Source: paper PMC12652692, “Synthesis and In Vitro Anticancer Evaluation of Novel Phosphonium Derivatives of Chrysin” (International Journal of Molecular Sciences, 2025)

Experiments:
Assay in all cases: NCI60 one-dose screen
[1] = tested on: NCI-H226; type: cell-based; settings: Homo sapiens; NCI-H226, 10 μM; read-out: Growth percent
Experimental: (§1) The screening results are presented in the Supplementary Materials (Table S1), where the cytotoxicity was determined for the 10 µM concentration. […] The negative numbers indicate significant decreases in the cell number. […] Compared to the reference chrysin (2), all phosphonium hybrids (3a–h) had significant antiproliferative activities. […] At the same time, it should be noted that more than 60% average reduction was also obtained in the case of the other examined conjugates (3a–h).
(§2) A detailed description of the NCI screening procedures, including the one-dose and five-dose tests, can be found in the Supplementary Materials, on the website of NCI [39], and in our previous work.
(§3) A detailed description of the NCI screening procedures can also be found on the website of NCI [39], and in our […]
(§4) All candidates were examined at first at a single high dose (10 μM) in the full NCI60 cell panel. The value reported for the one-dose test is growth relative to the no-drug control and relative to the time zero number of cells. This made possible the disclosure of both growth inhibition (numbers between 0 and 100) and lethality (numbers less than 0). For example, a value of 100 means no growth inhibition. A value of 20 would mean 80% growth inhibition. A value of 0 means no net growth over the course of the analysis. A value of −20 would mean 20% lethality. A value of −100 means all cells are dead. […]
(§5) concentration levels. The human tumor cell lines of the cancer screening panel were grown in RPMI 1640 medium containing 5% fetal bovine serum and 2 mM l-glutamine. Characteristically, cells were injected in 96-well microtiter plates in 0.1 mL at plating densities ranging from 5000 to 40,000 cells/well, depending on the doubling time of individual cell lines. After cell inoculation, the microtiter plates were incubated at 37 °C, 5% carbon dioxide, 95% air, and 100% relative humidity for 24 hours before the addition of tested compounds. After 24 hours, 2 plates of each cell line were fixed in situ with Cl3COOH (TCA), to represent a measurement of the cell population for each cell line at the time of drug addition (tz). Tested compounds were solubilized in DMSO at 400-fold the desired final maximum test concentration and stored frozen before application. In the course of the drug addition, an aliquot of frozen concentrate was thawed and diluted to twice the desired final maximum test concentration with a complete medium containing 50 μg mL−1 gentamicin. Additional four, 10-fold or ½ log serial dilutions were produced to furnish a total of five drug concentrations plus control. Aliquots of 0.1 mL of these different drug dilutions were added to the appropriate microtiter wells already containing 0.1 mL of medium, resulting in the required final drug concentrations.
(§6) Following drug addition, the plates were incubated at 37 °C, 5% carbon dioxide, 95% air, and 100% relative humidity for an additional 48 hours. For adherent cells, the test was finished by the addition of cold Cl3COOH. Cells were fixed in situ by the addition of 50 μL of cold 50% (w/v) Cl3COOH, and incubated at 4 °C for 1 hour. The supernatant was discarded, and the plates were washed with H2O (5×) and dried in air. Sulforhodamine B (SRB) solution (0.1 mL) at 0.4% (w/v) in 1% CH3COOH was added to each well, and plates were incubated at RT for 10 min. After staining, the unbound dye was removed by washing five times with 1% CH3COOH, and the plates were dried in the air. The bound stain is afterward solubilized with a 10 mM trizma base, and the absorbance is read on an automated plate reader at λ = 515 nm. Utilizing the seven absorbance measurements [time zero (tz), control growth (c), and test growth in the presence of the drug at the five concentration levels (ti)], the percentage growth was determined at each of the drug concentration levels. Growth inhibition (%) was calculated as:
(§7) [(ti − tz)/(c − tz)] × 100, for concentrations where ti ≥ tz (1) […]

[2] = tested on: HOP-62; type: cell-based; settings: Homo sapiens; HOP-62, 10 μM; read-out: Growth percent
Experimental: as §1, §2, §3, §4, §5, §6, §7

[3] = tested on: ACHN; type: cell-based; settings: Homo sapiens, read-out: Growth percent
Experimental: as §1, §2, §3, §4, §5, §6, §7

[4] = tested on: MDA-MB-435; type: cell-based; settings: Homo sapiens; MDA-MB-435, 10 μM; read-out: Growth percent
Experimental: as §1, §2, §3, §4, §5, §6, §7

[5] = tested on: CAKI-1; type: cell-based; settings: Homo sapiens; CAKI-1, 10 μM; read-out: Growth percent
Experimental: as §1, §2, §3, §4, §5, §6, §7

[6] = tested on: SF-268; type: cell-based; settings: Homo sapiens; SF-268, 10 μM; read-out: Growth percent
Experimental: as §1, §2, §3, §4, §5, §6, §7

[7] = tested on: OVCAR-5; type: cell-based; settings: Homo sapiens; OVCAR-5, 10 μM; read-out: Growth percent
Experimental: as §1, §2, §3, §4, §5, §6, §7

[8] = tested on: SNB-19; type: cell-based; settings: Homo sapiens; SNB-19, 10 μM; read-out: Growth percent
Experimental: as §1, §2, §3, §4, §5, §6, §7

[9] = tested on: HT29; type: cell-based; settings: Homo sapiens, HT-29; HT29, 10 μM; read-out: Growth percent
Experimental: as §1, §2, §3, §4, §5, §6, §7

[10] = tested on: SK-MEL-2; type: cell-based; settings: Homo sapiens; SK-MEL-2, 10 μM; read-out: Growth percent
Experimental: as §1, §2, §3, §4, §5, §6, §7

[11] = tested on: EKVX; type: cell-based; settings: Homo sapiens, read-out: Growth percent
Experimental: as §1, §2, §3, §4, §5, §6, §7

[12] = tested on: NCI-H23; type: cell-based; settings: Homo sapiens; NCI-H23, 10 μM; read-out: Growth percent
Experimental: as §1, §2, §3, §4, §5, §6, §7

[13] = tested on: M14; type: cell-based; settings: Homo sapiens; M14, 10 μM; read-out: Growth percent
Experimental: as §1, §2, §3, §4, §5, §6, §7

[14] = tested on: NCI-H322M; type: cell-based; settings: Homo sapiens, read-out: Growth percent
Experimental: as §1, §2, §3, §4, §5, §6, §7

[15] = tested on: SK-OV-3; type: cell-based; settings: Homo sapiens; SK-OV-3, 10 μM; read-out: Growth percent
Experimental: as §1, §2, §3, §4, §5, §6, §7

[16] = tested on: A549/ATCC; type: cell-based; settings: Homo sapiens, read-out: Growth percent
Experimental: as §1, §2, §3, §4, §5, §6, §7

[17] = tested on: HCT-15; type: cell-based; settings: Homo sapiens; HCT-15, 10 μM; read-out: Growth percent
Experimental: as §1, §2, §3, §4, §5, §6, §7

[18] = tested on: T-47D; type: cell-based, human; settings: 10 μM
Experimental: as §1, §2, §3, §4, §5, §6, §7

[19] = tested on: UACC-62; type: cell-based, human; settings: UACC-62, 10 μM
Experimental: as §1, §2, §3, §4, §5, §6, §7

[20] = tested on: PC-3; type: cell-based, human; settings: PC-3, 10 μM
Experimental: as §1, §2, §3, §4, §5, §6, §7

[21] = tested on: SR; type: cell-based, human; settings: 10 μM
Experimental: as §1, §2, §3, §4, §5, §6, §7

[22] = tested on: HOP-92; type: cell-based, human; settings: HOP-92, 10 μM
Experimental: as §1, §2, §3, §4, §5, §6, §7

SMILES	activity at 10 µM [1]	activity at 10 µM [2]	activity at 10 µM [3]	activity at 10 µM [4]	activity at 10 µM [5]	activity at 10 µM [6]	activity at 10 µM [7]	activity at 10 µM [8]	activity at 10 µM [9]	activity at 10 µM [10]	activity at 10 µM [11]	activity at 10 µM [12]	activity at 10 µM [13]	activity at 10 µM [14]	activity at 10 µM [15]	activity at 10 µM [16]	activity at 10 µM [17]	Growth percent [18]	Growth percent [19]	Growth percent [20]	other results
O=c1cc(-c2ccccc2)oc2cc(OCCCC[P+](c3ccccc3)(c3ccccc3)c3ccccc3)cc(O)c12 [3a]	-29%	-63.6%	-100%	-67.5%	-97.1%	-59%	-97.7%	-44.5%	-65%	-94.1%	-97.6%	-93%	-70.1%	-100%	-83.4%	-56%	-94.2%	−62.52%	−59.51%	−87.34%	Growth percent [21]: −39.83%
Cc1ccc([P+](CCCCOc2cc(O)c3c(=O)cc(-c4ccccc4)oc3c2)(c2ccc(C)cc2)c2ccc(C)cc2)cc1 [3b]	-50.2%	-62%	-92.8%	-88.2%	-90.4%	-61.3%	-80.3%	-96.1%	-60.7%	-76.9%	-88.3%	-90.9%	-75.2%	-79.5%	-75.3%	-49.5%	-88%	−52.52%	−88.32%		Growth percent [21]: −36.14%
COc1ccc([P+](CCCCOc2cc(O)c3c(=O)cc(-c4ccccc4)oc3c2)(c2ccc(OC)cc2)c2ccc(OC)cc2)cc1 [3c]	-67.6%	-81.1%	-63.5%	-89.6%	-75.5%	-38.3%	-59.3%	-78.9%	-82.8%	-88.6%	-70.9%	-77%	-1.24%	-45.1%	-77.7%	-91.2%	-64.2%			−82.70%	Growth percent [22]: −79.86%
O=c1cc(-c2ccccc2)oc2cc(OCCCC[P+](c3ccc(F)cc3)(c3ccc(F)cc3)c3ccc(F)cc3)cc(O)c12 [3d]	-56.9%	-70.8%	-85.4%	-90.8%	-93.6%	-71.6%	-89.9%	-97.4%	-69.8%	-77.3%	-83.9%	-93%	-75.5%	-88.3%	-88.2%	-41.1%	-48.6%	−53.27%	−96.92%		Growth percent [21]: −36.14%
O=c1cc(-c2ccccc2)oc2cc(OCCCC[P+](C3CCCCC3)(C3CCCCC3)C3CCCCC3)cc(O)c12 [3e]	-56.7%	-82.6%	-72.5%	-93.6%	-90.8%	-67.5%	-60.5%	-87.6%	-84.9%	-91.9%	-83.5%	-88.5%	-82.2%	-85.2%	-82.4%	-95.3%	-88.8%			−70.81%	Growth percent [22]: −75.86%
COc1c(C)cc([P+](CCCCOc2cc(O)c3c(=O)cc(-c4ccccc4)oc3c2)(c2cc(C)c(OC)c(C)c2)c2cc(C)c(OC)c(C)c2)cc1C [3f]	-58.5%	-25.2%	-88.4%	-81.9%	-51.6%	-66.5%	-87.8%	-76.8%	-72.7%	-77.6%	-76.5%	-77.3%	-68.3%	-62.2%	-58.3%	-66.1%	-58.9%	−52.77%	−80.44%	−76.48%	Growth percent [22]: −68.75%; Growth percent [21]: 23.00%
Cc1ccccc1[P+](CCCCOc1cc(O)c2c(=O)cc(-c3ccccc3)oc2c1)(c1ccccc1C)c1ccccc1C [3g]	-99.4%	-98.3%	-97%	-98.3%	-97.2%	-97.9%		-97.4%	-97.9%	-98.5%	-98.4%	-98.4%	-97.5%	-98.2%	-97.9%	-94.1%	-94.7%		−97.94%	−97.92%	Growth percent [22]: −98.85%
